Tests used:
[1] = Octanol-water partition coefficient, log Kow of the compound
Albumin = Albumin (Homo sapiens, UniProt P02768); assay: Binding affinity to human serum albumin; conditions: isolated protein
Sequence of Albumin (P02768 whole entry): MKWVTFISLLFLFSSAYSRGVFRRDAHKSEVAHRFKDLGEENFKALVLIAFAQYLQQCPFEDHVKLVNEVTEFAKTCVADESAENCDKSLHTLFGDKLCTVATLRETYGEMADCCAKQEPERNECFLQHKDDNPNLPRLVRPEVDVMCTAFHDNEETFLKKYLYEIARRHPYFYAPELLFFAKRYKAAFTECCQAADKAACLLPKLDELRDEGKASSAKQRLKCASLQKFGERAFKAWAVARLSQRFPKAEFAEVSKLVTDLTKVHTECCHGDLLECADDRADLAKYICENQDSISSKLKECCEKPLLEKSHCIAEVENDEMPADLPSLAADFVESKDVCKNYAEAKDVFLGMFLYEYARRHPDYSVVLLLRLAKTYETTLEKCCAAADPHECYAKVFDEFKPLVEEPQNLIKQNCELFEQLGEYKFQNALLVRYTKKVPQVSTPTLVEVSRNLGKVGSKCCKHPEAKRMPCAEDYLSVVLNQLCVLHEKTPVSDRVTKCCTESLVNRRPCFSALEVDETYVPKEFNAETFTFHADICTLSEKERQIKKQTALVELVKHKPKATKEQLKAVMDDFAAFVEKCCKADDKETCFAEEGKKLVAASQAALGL

| logP [1] | logKA (Albumin) | SMILES |
| --- | --- | --- |
| 1.84 | 0.155 | Cc1cccc2[nH]cc(CC(=O)O)c12 |
| 3.42 | 0.983 | O=C(O)Cc1c[nH]c2c(Cl)cc(Cl)cc12 |
| 3.21 | 0.809 | CCCc1ccc2[nH]cc(CC(=O)O)c2c1 |
| 1.96 | 0.689 | Cc1ccc2c(CC(=O)O)c[nH]c2c1 |
| 1.95 | 0.288 | Cc1cccc2c(CC(=O)O)c[nH]c12 |
| 2.92 | 0.799 | O=C(O)Cc1c[nH]c2ccc(Cl)c(Cl)c12 |
| 2.13 | 0.458 | O=C(O)Cc1c[nH]c2cccc(Cl)c12 |
| 2.32 | 0.623 | O=C(O)Cc1c[nH]c2c(Cl)cccc12 |
| 2.56 | 1.044 | CCc1ccc2c(CC(=O)O)c[nH]c2c1 |
| 3.2 | 1.436 | O=C(O)Cc1c[nH]c2cc(Cl)c(Cl)cc12 |
| 2.54 | 0.49 | CCc1ccc2[nH]cc(CC(=O)O)c2c1 |
| 3.16 | 1.09 | O=C(O)Cc1c[nH]c2c(Cl)c(Cl)ccc12 |
| 1.99 | 0.217 | Cc1ccc2[nH]cc(CC(=O)O)c2c1 |
| 1.74 | 0.308 | O=C(O)Cc1c[nH]c2cc(F)ccc12 |
| 1.72 | 0.261 | O=C(O)Cc1c[nH]c2ccc(F)cc12 |
| 2.41 | 0.863 | O=C(O)Cc1c[nH]c2cc(Cl)ccc12 |

The next lines start with the compound.

| SMILES | logP [1] | logKA (Albumin) |
| --- | --- | --- |
| CCc1[nH]c2ccccc2c1CC(=O)O | 2.09 | 0.031 |
| CCOC(=O)Cc1c[nH]c2ccccc12 | 2.34 | 0.292 |
| O=C(O)Cc1c[nH]c2c(Cl)ccc(Cl)c12 | 3.02 | 0.84 |
| O=C(O)Cc1c[nH]c2ccc(Cl)cc12 | 2.38 | 0.646 |
| Cc1[nH]c2ccccc2c1CC(=O)O | 1.72 | -0.04 |
| O=C(O)Cc1c[nH]c2ccc(OCc3ccccc3)cc12 | 3.2 | – |
| O=C(O)Cc1c[nH]c2c(F)cccc12 | 1.81 | 0.247 |
| O=C(O)Cc1c[nH]c2ncccc12 | 0.45 | -0.314 |
| O=C(O)Cc1c[nH]c2ccc(O)cc12 | 0.74 | -0.125 |
| CCCc1[nH]c2ccccc2c1CC(=O)O | 2.56 | 0.15 |
| CCc1cccc2[nH]cc(CC(=O)O)c12 | 2.33 | 0.393 |
| CCCCc1ccc2[nH]cc(CC(=O)O)c2c1 | 3.89 | 1.05 |
| O=C(O)Cc1c[nH]c2cc(Cl)cc(Cl)c12 | 3.29 | 1.082 |
| Cn1cc(CC(=O)O)c2ccccc21 | 1.87 | 0.243 |
| COc1ccc2[nH]cc(CC(=O)O)c2c1 | 1.23 | 0.185 |
| O=C(O)Cc1c[nH]c2cccc(F)c12 | 1.66 | 0.305 |
| COc1ccc2[nH]c(C)c(CC(=O)O)c2c1 [DESCHLOROBENZOYL INDOMETHACIN] | 2.14 | 0.228 |
| O=C(O)Cc1c[nH]c2ccccc12 [INDOLE-3-ACETIC ACID] | 1.42 | 0.102 |

From ChEMBL document CHEMBL1148690, “Binding of ring-substituted indole-3-acetic acids to human serum albumin” (Bioorg Med Chem, 2007)
